Experimental data published in US20130171162A1, “COMPOSITIONS AND METHODS FOR THE PREVENTION OF OXIDATIVE DEGRADATION OF PROTEINS” (priority 2008, published 2013).
“Also recorded” adds a separate entry of the source. Like-named read-outs stand apart in the source and are kept apart here.

Key:
anti-VEGF antibody = conditions: for protection of anti-VEGF antibody against oxidation (basic peaks in IEC): AAPH, free Trp 2 or 10 mg/mL
PTH [1] = assay: Screening stabilizers for PTH oxidized by AAPH, H2O2 plus Fe(II), H2O2; rp-HPLC; format: physicochemical
PTH [2] = conditions: AAPH, FIG. 11
PTH [3] = assay: Screening stabilizers for PTH oxidized by AAPH, H2O2 plus Fe(II), H2O2; rp-HPLC; format: physicochemical; conditions: for protection of Trp residue in PTH: stress AAPH 1 mM, stabilizer 2 mg/mL; for protection of Trp residue in PTH / protection of PTH against oxidation: 40° C., 6 hours; for protection of PTH against oxidation: stress AAPH
Description: The protein solution was subsequently stressed by the addition of 1 mM of AAPH, and incubated at 40° C. for 6 hours.
The experiments were carried on a Waters HPLC instrument using a C4 (Vydac, 214TP, 5μ, 2.1×250 mm). The solvent A was 0.1% trifluoracetic acid (TFA) in H2O and the solvent B was 0.08% TFA in acetonitrile. The samples were analyzed with a linear gradient from 20% B to 80% B at a flow rate of 0.2 mL/min in 45 min. The column temperature was set at 30° C.

[4] = Anti-VEGF antibody oxidation, IEC chromatogram; conditions: for oxidation / oxidative species in basic region of IEC: H2O2
[5] = stress H2O2 plus Fe(II) (Fenton reaction), 40° C., 6 hours

O=C([O-])CN(CCN(CC(=O)[O-])CC(=O)O)CC(=O)O.[Na+].[Na+] [EDTA, EDTA disodium]
effect on Trp 50 oxidation of anti-VEGF antibody (anti-VEGF antibody; EDTA added as stabilizer): inhibited; also recorded: improved stability

OC[C@H]1O[C@@](CO)(O[C@H]2O[C@H](CO)[C@@H](O)[C@H](O)[C@H]2O)[C@@H](O)[C@@H]1O [Sucrose, sucrose]
protection of PTH against oxidation (PTH [1]; [5]): less effective than mannitol

CSCC[C@H](N)C(=O)O [free methionine, L-Methionine]
effect on the oxidation of Trp in PTH (Trp[O] peak) (PTH [1]; free Met 2 mg/mL, FIG. 6): no effect | oxidation of Met residues in PTH (Met[O]-PTH peaks) (PTH [1]; free Met 2 mg/mL, FIG. 6): significantly reduced | protection of PTH against oxidation (PTH [1]; stress H2O2, 40° C., 6 hours): protected | protection of PTH against oxidation (PTH [1]; stress H2O2, 40° C., 6 hours, listed as Free Met): neutralized the effect of the oxidants H2O2 | protection of PTH against oxidation (PTH [1]; [5]): protected | protection of PTH against oxidation (PTH [1]; stress H2O2 plus Fe(II) (Fenton reaction), 40° C., 6 hours, listed as Free Met): neutralized the effect of the oxidants H2O2 | Met oxidation of PTH, relative quantification by EIC (PTH [2]): suppressed the Met oxidation significantly

N[C@@H](Cc1c[nH]c2ccccc12)C(=O)O [free tryptophan, L-Tryptophan]
Met[O]-PTH peaks (PTH [3]; free Trp 2 mg/mL, AAPH stress): prominent | protection of Trp residue in PTH (PTH [3]): good protection | protection of PTH against oxidation (PTH [3]): effective only against the oxidation by AAPH | Met[O]-PTH peaks (PTH [1]; free Trp 2 mg/mL, Fenton reaction): much less so | protection of Trp residue in PTH (PTH [1]; stress Fenton reaction, stabilizer 2 mg/mL, 40° C., 6 hours): good protection | protection of PTH against oxidation (PTH [1]; stress H2O2, 40° C., 6 hours): no protection | Trp oxidation of PTH, relative quantification by EIC (PTH [2]): suppressed the Trp oxidation significantly | protection of anti-VEGF antibody against oxidation (basic peaks in IEC) (anti-VEGF antibody): excellent protection | protection of anti-VEGF antibody against oxidation (basic peaks in IEC) (anti-VEGF antibody; listed as Free Trp): effective in mitigating oxidation | protection of anti-VEGF antibody against oxidation (basic peaks in IEC) (anti-VEGF antibody; listed as free Trp): dropped to the baseline | protection of anti-VEGF antibody against oxidation (basic peaks in IEC) (anti-VEGF antibody; listed as tryptophan): effectively blocked the oxidative reaction

OC[C@@H](O)[C@@H](O)[C@H](O)[C@H](O)CO [mannitol, Mannitol]
protection of PTH against oxidation (PTH [3]): not protected by mannitol at all | protection of PTH against oxidation (PTH [1]; stress H2O2, 40° C., 6 hours): not protected by mannitol at all | protection of PTH against oxidation (PTH [1]; [5]): effective; also recorded: complete protection

Cc1ncc(CO)c(CO)c1O [pyridoxine]
protection of Trp residue in PTH (PTH [3]): excellent protection

Cc1c(C)c2c(c(C)c1O)CCC(C)(C(=O)O)O2 (stereo not shown) [trolox, 6-hydroxy-2,5,7,8-tetramethylchroman-2-carboxylic acid]
protection of Trp residue in PTH (PTH [3]): excellent protection

anti-VEGF antibody: humanized anti-VEGF antibody fragment, indicated for the treatment of neovascular (wet) age-related macular degeneration
oxidation / peaks in basic region of IEC ([4]; AAPH): produced additional peaks in the basic region of IEC chromatogram | oxidation / oxidative species in basic region of IEC [4]: did not cause the anti-VEGF antibody oxidation | oxidation / oxidative species in basic region of IEC ([4]; listed as anti-VEGF): no oxidative species in basic region
